Data from patent US20260041649A1, “ANTI-INFLAMMATORY AGENT” (WATANABE OYSTER LABORATORY, CO., LTD., priority 2023, published 2026).

Key:
[1] = test system: mouse macrophage RAW264.7 cells; assay: Cell death of subconfluent RAW264.7 cells (cell count); type: cell-based; settings: for death in RAW264.7 cells: DHMBA 1, 10, 100 or 1000 μM, subconfluent cells
Description: FIG. 4 is an explanatory diagram describing that the marine factor 3,5-dihydroxy-4-methoxy benzyl alcohol (DHMBA) stimulates cell death in mouse macrophage RAW264.7 cells. RAW264.7 cells (1×10^5 cells/ml/well in a 24-well plate) were cultured in DMEM containing 10% FBS, 1% P/S, and 1% fungizone for 3 days until they reached subconfluence. The cells were cultured for another 24 hours (FIG. 4A) or 48 hours (FIG. 4B) in the control group (1% ethanol; 0 μM DHMBA as final concentration) and in the DHMBA-treated group (0.1, 1, 10, 100, or 1000 μM). In FIG. 4C, subconfluent RAW264.7 cells were cultured for another 48 hours with a caspase-3 inhibitor (10 μM) in the control group (1% ethanol; 0 μM DHMBA as final concentration) and the DHMBA-treated group (1 or 10 μM). After the culture, the number of cells attached to the dish was counted. Data are presented as the mean±SD from a total of 8 wells in 2 plates using different cell preparations. In FIG. 4D, to measure the expression level of caspase-3 or cleaved caspase-3, […] (1×10^6 cells/10 ml medium in a 100 mm dish) were cultured for 3 days in a DMEM culture medium in the control group (1% ethanol; 0 μM DHMBA as final concentration) and the DHMBA-treated group (10 μM). After the culture, cell lysates were obtained for Western blotting assay. In FIG. 4E, band intensities are shown as fold increase over the control. Data are presented as the mean±SD of values obtained from 4 dishes using different cell preparations. *: Significant difference (p<0.001) between the control group and the DHMBA-treated group. Statistical analysis was performed using 1-way ANOVA with Tukey-Kramer post-test.
RAW264.7 cells (1×10^5/ml/well in a 24-well plate) were cultured for 3 days in a DMEM culture medium containing 10% FBS, 1% P/S, and 1% fungizone using a 24-well plate. […]
The number of viable cells was counted under a microscope (Olympus MTV-3) using a hemocytometer (Sigma-Aldrich) and a cell counter (H-102P, Line Seiki Co., Ltd., Tokyo, Japan).

[2] = test system: mouse macrophage RAW264.7 cells; assay: Western blotting of caspase-3 and cleaved caspase-3; type: cell-based; settings: DHMBA 10 μM, 3 days
Description: FIG. 4 is an explanatory diagram describing that the marine factor 3,5-dihydroxy-4-methoxy benzyl alcohol (DHMBA) stimulates cell death in mouse macrophage RAW264.7 cells. RAW264.7 cells (1×10^5 cells/ml/well in a 24-well plate) were cultured in DMEM containing 10% FBS, 1% P/S, and 1% fungizone for 3 days until they reached subconfluence. The cells were cultured for another 24 hours (FIG. 4A) or 48 hours (FIG. 4B) in the control group (1% ethanol; 0 μM DHMBA as final concentration) and in the DHMBA-treated group (0.1, 1, 10, 100, or 1000 μM). […] After the culture, the number of cells attached to the dish was counted. […]
RAW264.7 cells (1×10^6 cells/10 ml of 100 mm dish) were cultured for 3 days in 10% FBS, 1% P/S (1% ethanol), or in the DHMBA-treated group (10 μM). […] Protein concentrations in the supernatants were measured using Bio-Rad Protein Assay Dye (Bio-Rad Laboratories, Inc., Hercules, CA, USA) with bovine serum albumin as a standard. […] After incubation, the membranes were further incubated with horseradish peroxidase-conjugated secondary antibodies (Santa Cruz Biotechnology Inc., cat. no. sc-2005 (mouse) or sc-2305 (rabbit); dilution 1:2000) for 60 min at room temperature, and protein bands were detected using chemiluminescence substrates (cat. no. 34577, Thermo Fisher Scientific Inc., Rockford, IL, USA) on X-ray films. […]

COc1c(O)cc(CO)cc1O [DHMBA, 3,5-dihydroxy-4-methoxybenzyl alcohol]
death in RAW264.7 cells ([1]; 24 hours): promoted
death in RAW264.7 cells ([1]; 48 hours): promoted
stimulatory effect on death of RAW264.7 cells in presence of caspase-3 inhibitor ([1]; DHMBA 1 or 10 μM, caspase-3 inhibitor 10 μM, 48 hours): blocked
level of caspase-3 [2]: increased
level of cleaved caspase-3 [2]: increased
